From patent US20240058315A1, “Pyridine and Pyrazine derivative for the Treatment of CF, COPD, and Bronchiectasis” (NOVARTIS AG, priority 2019, published 2024)

Legend:
in vivo = settings: monkey
OATP1B3 = OATP1B3 (Homo sapiens (Human), UniProt Q9NPD5); test: in vitro inhibition of OATP1B3; assay type: in vitro ADME
OATP1B1 = OATP1B1 (Homo sapiens (Human), UniProt Q9Y6L6); test: in vitro inhibition of OATP1B1; assay type: in vitro ADME
UGT2B7 = UGT2B7 (Homo sapiens (Human), UniProt P16662); test: in vitro inhibition of UGT2B7; assay type: in vitro ADME
Chain of UGT2B7 (P16662 24-529): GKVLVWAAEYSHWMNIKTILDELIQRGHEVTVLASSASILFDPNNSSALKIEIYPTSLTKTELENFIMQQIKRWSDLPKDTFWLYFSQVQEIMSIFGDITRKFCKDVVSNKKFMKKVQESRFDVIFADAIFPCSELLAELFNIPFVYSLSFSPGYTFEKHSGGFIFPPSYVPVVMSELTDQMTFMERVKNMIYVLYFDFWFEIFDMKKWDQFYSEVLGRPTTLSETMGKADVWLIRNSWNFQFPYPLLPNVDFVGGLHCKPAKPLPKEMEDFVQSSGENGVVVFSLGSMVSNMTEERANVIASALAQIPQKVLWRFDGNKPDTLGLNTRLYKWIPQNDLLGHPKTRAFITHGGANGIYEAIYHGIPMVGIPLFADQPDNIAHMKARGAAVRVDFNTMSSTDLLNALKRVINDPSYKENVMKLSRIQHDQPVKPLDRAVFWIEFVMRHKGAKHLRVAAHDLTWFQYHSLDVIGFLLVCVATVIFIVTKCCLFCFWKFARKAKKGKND

ΔF508-CFTR = ΔF508-CFTR (Homo sapiens (Human), UniProt P13569, DEL508-508); test: CFTR potentiator assays (membrane potential, IonWorks Quattro, Ussing chamber ion transport); assay type: cell-based; settings: CFTR EC50 in 'the data measurements described above'; which of the potentiator assays is not stated
Chain of ΔF508-CFTR (P13569 other isoform, or with tags, fused parts or gaps del F508-F508): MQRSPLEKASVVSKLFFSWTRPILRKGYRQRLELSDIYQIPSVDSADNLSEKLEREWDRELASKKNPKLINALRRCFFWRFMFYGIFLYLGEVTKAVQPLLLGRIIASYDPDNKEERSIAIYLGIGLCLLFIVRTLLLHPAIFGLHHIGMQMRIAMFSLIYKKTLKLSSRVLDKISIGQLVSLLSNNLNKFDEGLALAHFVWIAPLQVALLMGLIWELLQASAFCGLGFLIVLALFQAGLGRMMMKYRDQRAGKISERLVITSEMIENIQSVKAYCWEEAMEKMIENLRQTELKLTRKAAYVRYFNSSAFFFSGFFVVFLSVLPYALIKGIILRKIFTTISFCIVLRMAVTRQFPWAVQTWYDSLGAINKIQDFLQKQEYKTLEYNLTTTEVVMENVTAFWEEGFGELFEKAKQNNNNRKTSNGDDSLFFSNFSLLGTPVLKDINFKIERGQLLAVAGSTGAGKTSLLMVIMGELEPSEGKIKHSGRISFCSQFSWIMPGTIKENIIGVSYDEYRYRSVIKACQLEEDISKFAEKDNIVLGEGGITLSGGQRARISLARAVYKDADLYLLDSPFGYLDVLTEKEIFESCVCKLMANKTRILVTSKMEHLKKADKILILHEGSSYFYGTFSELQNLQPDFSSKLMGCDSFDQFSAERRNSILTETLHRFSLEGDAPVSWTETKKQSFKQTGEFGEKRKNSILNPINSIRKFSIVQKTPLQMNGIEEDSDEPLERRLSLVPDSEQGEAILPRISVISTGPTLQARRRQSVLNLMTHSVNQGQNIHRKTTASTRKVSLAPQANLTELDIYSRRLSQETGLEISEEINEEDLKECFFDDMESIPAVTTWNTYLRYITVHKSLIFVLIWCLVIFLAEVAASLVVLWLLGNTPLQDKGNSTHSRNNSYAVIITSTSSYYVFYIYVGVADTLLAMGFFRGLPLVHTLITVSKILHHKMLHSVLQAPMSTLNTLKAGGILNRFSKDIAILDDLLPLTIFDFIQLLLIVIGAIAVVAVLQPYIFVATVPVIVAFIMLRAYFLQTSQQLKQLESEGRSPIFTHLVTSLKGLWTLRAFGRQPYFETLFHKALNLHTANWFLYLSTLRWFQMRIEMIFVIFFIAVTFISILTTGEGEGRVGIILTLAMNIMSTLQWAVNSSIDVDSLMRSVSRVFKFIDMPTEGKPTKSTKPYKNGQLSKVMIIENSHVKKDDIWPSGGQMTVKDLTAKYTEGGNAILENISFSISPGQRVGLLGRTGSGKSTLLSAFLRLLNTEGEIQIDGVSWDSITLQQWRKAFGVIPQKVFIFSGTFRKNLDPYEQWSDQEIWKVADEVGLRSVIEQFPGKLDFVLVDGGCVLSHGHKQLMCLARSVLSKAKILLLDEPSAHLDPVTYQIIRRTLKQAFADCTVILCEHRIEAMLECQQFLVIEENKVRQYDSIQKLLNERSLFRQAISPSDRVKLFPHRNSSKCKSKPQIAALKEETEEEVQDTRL
Excerpt: CFTR activity can be quantified by measuring the transmembrane potential. The means for measuring the transmembrane potential in a biological system can employ a number of methods including electrophysiological and optical fluorescence-based membrane potential assays.
The optical membrane potential assay utilises a negatively charged potentiometric dye, such as the FLIPR membrane potential dye (FMP) (see Baxter D F, Kirk M, Garcia A F, Raimondi A, Holmqvist M H, Flint K K, Bojanic D, Distefano P S, Curtis R, Xie Y. ‘A novel membrane potential-sensitive fluorescent dye improves cell-based assays for ion channels.’ J Biomol Screen. 2002 February; 7(1):79-85) which when extracellular is bound to a quenching agent.
Upon cellular depolarisation the negatively charged dye redistributes to the intracellular compartment, unbinding from the membrane impermeant quench agent, yielding an increase in fluorescence. This change in fluorescence is proportional to the change in transmembrane potential which can result from the activity of CFTR. The changes in fluorescence can be monitored in real time by an appropriately equipped fluorescence detector such as the FLIPR (fluorometric imaging plate reader) in 96 or 384-well microtitre plates.
Chinese hamster ovary (CHO) cells stably expressing the AF508-CFTR channel were used for membrane potential experiments. Cells were maintained at 37° C. in 5% v/v CO2 at 100% humidity in Modified Eagles medium (MEM) supplemented with 8% v/v foetal calf serum, 100 μg/ml methotrexate and 100 U/ml penicillin/streptomycin. Cells were grown in 225 cm^2 tissue culture flasks. For membrane potential assays cells were seeded into 96 well plates at 40,000 cells per well, allowed to adhere and then maintained at 26° C. for 48 h to facilitate channel insertion.
The membrane potential screening assay utilised a low chloride ion containing extracellular solution (˜5 mM) combined with a double addition protocol. The first addition was of buffer with or without test compound followed 5 minutes later by an addition of forskolin (1-20 μM)—this protocol favours maximum chloride efflux in response to ΔF508-CFTR activation. The ΔF508-CFTR mediated chloride ion efflux leads to a membrane depolarisation which is optically monitored by the FMP dye.
Low chloride extracellular (mM): 120 Na-gluconate, 1.2 CaCl2), 3.3 KH2PO4, 0.8 K2HPO4, 1.2 MgCl2, 10.0 D-glucose, 20.0 HEPES, pH 7.4 with NaOH FMP dye: made up as per manufacturers' instructions in low chloride extracellular solution detailed above, at 10× final concentration, and stored as 1 mL aliquots at −20° C.
CFTR activity can also be quantified electrophysiologically using the whole-cell configuration of the patch clamp technique (Hamill et al Pflugers Archive 1981). This assay directly measures the currents associated with chloride flow through CFTR channels whilst either maintaining or adjusting the transmembrane voltage. This assay can use either single glass micropipettes or parallel planar arrays to measure CFTR activity from native or recombinant cell systems. Currents measured using parallel planar arrays can be quantified using an appropriately equipped instrument such as the IonWorks Quattro (Molecular Devices) or the Qpatch (Sophion). The Quattro system can measure CFTR currents from either a single cell per recording well (HT configuration) or alternatively from a population of 64 cells per well (Population Patch Clamp PPC) (Finkel A, Wittel A, Yang N, Handran S, Hughes J, Costantin J. ‘Population patch clamp improves data consistency and success rates in the measurement of ionic currents.’ J Biomol Screen. 2006 August; 11(5):488-96).
Chinese hamster ovary (CHO) cells stably expressing the ΔF508-CFTR channel were used for IonWorks Quattro experiments. […]

wild type CTFR channel = wild type CTFR channel (Homo sapiens (Human), UniProt P13569); test: in vitro EC50 against the wild type CFTR channel; assay type: cell-based
Chain of wild type CTFR channel (P13569 whole entry): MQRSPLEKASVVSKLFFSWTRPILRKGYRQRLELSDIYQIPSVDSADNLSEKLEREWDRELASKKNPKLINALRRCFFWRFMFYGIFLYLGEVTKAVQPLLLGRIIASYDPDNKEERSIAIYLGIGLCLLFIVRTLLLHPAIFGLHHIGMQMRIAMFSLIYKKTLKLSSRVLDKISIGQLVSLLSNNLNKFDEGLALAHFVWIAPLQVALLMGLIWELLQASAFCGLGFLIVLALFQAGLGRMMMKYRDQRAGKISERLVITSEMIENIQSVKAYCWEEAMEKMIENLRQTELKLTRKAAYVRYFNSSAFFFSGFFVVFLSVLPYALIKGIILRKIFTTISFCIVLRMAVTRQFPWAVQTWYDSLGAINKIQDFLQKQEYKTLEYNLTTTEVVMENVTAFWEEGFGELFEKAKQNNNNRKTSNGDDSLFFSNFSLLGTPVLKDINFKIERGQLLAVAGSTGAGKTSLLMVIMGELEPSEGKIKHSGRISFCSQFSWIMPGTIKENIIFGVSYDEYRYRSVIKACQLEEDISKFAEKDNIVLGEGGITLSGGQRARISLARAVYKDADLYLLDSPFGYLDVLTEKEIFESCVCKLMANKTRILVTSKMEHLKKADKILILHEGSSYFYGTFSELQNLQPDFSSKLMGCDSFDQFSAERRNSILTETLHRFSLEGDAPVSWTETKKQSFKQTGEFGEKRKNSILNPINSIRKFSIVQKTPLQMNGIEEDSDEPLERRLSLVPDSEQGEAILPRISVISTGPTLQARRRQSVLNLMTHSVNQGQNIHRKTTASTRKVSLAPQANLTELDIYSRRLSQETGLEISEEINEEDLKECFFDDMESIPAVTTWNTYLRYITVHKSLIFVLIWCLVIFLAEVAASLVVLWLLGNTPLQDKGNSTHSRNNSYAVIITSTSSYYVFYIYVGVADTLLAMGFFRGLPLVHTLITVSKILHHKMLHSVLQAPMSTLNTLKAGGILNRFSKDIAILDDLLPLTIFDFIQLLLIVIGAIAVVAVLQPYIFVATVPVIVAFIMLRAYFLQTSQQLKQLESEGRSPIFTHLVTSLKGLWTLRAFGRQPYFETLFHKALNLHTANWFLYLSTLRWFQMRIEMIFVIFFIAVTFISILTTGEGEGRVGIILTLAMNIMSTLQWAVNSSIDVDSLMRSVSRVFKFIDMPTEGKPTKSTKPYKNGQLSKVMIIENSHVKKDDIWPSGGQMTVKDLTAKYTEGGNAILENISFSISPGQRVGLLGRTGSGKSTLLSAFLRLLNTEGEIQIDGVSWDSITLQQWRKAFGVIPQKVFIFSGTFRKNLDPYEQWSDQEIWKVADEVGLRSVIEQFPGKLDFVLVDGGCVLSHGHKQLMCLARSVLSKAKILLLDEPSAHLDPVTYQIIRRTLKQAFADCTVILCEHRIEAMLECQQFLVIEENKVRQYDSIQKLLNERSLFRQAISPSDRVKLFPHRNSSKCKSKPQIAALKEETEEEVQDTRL
Excerpt: There is no preclinical in vivo model of CFTR potentiation.

COPD patients = test: Phase II study of Compound A in COPD patients: fibrinogen levels in blood; assay type: in vivo, human; parameters: fibrinogen change from baseline, mean / fibrinogen change from baseline, minimum / fibrinogen change from baseline, median / fibrinogen change from baseline, maximum: unit not given here; settings: for fibrinogen change from baseline, maximum / fibrinogen change from baseline, mean / fibrinogen change from baseline, median / fibrinogen change from baseline, minimum: value in brackets
Protocol: Patients were randomized and stratified by smoking status (former vs current smokers). The double-blind placebo-controlled treatment period was 28 days (Day 1 to Day 28) and included visits on Days 1, 14 and 28. Eligible patients were randomized in a 2:1 ratio to receive 300 mg b.i.d. of Compound A or matching placebo for 28 consecutive days. Of note, the first 4 patients enrolled randomized in this study received 450 mg b.i.d. of Compound A or placebo, prior to an amendment reducing the dose and thereafter the dose was reduced to 300 mg b.i.d. of Compound A. The single-blind placebo-controlled follow-up period was 28 days. The follow-up period included a visit on Day 29 for key primary and secondary objective efficacy assessments, weekly follow-up contact via telephone, and an End-of-Study (EOS) visit on Day 56.
Blood samples were collected from patients for the analysis of fibrinogen.

[1] = BAS (baseline) visit, 300 mg bid group
[2] = SCR (screening) visit, 300 mg bid group

Chain of OATP1B3 (Q9NPD5 whole entry): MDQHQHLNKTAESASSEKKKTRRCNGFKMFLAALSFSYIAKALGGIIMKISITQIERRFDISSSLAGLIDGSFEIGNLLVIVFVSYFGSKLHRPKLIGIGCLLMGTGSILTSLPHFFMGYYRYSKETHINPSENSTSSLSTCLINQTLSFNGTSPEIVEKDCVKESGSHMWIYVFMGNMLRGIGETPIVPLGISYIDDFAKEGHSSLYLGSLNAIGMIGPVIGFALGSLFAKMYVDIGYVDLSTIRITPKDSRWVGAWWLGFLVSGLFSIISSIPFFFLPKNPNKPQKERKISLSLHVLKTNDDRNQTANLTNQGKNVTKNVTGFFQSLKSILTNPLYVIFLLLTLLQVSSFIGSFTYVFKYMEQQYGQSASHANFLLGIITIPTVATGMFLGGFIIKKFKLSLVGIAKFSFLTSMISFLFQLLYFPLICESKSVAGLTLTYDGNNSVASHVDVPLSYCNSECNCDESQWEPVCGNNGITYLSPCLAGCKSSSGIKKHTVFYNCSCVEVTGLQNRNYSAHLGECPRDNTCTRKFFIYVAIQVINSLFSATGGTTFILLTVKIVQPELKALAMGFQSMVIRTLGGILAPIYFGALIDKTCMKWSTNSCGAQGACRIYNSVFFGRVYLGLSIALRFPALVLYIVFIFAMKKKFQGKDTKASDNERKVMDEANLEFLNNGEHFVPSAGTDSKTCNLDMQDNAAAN
Chain of OATP1B1 (Q9Y6L6 whole entry): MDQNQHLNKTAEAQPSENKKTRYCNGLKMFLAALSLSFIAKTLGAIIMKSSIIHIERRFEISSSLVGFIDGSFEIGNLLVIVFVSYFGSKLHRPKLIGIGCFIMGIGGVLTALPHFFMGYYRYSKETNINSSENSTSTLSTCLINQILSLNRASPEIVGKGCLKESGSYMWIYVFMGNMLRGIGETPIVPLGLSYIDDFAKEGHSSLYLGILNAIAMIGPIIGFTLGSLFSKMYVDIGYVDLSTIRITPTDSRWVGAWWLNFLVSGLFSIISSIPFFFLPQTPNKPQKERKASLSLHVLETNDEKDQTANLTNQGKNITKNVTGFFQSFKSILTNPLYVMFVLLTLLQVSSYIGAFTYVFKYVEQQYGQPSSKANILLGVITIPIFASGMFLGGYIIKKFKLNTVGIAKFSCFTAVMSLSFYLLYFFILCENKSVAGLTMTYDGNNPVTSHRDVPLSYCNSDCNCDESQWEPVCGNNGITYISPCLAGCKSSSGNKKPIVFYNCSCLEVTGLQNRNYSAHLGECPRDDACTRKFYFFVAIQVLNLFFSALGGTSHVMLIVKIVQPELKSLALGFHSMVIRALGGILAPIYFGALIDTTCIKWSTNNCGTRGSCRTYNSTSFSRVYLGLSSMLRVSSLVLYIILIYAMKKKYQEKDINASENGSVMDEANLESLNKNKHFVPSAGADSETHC

COc1nc(C(=O)NC[C@](C)(O)C(F)(F)F)c(N)cc1C(F)(F)F (single isomer, unassigned) [Example 5]
AUC(0-t) (in vivo; NOAEL exposure, AUC0-24 h (exposure threshold), chronic monkey toxicology study): 91.7 µg·h/mL
AUC(0-t) (in vivo; upper range of the individual animal (monkey) exposures, AUC0-24 h): 159 µg·h/mL
inhibition of OATP1B3 (OATP1B3): Weak in vitro inhibition
inhibition of OATP1B1 (OATP1B1): Weak in vitro inhibition
inhibition of UGT2B7 (UGT2B7): Weak in vitro inhibition
EC50 (ΔF508-CFTR): 50 nM
EC50 (wild type CTFR channel): 72 nM
fibrinogen level, maximum (COPD patients; [1]): 4.9 g/L
fibrinogen level, mean (COPD patients; [1]): 3.28 g/L
fibrinogen level, median (COPD patients; [1]): 3.16 g/L
fibrinogen level, minimum (COPD patients; [1]): 2 g/L
fibrinogen level, maximum (COPD patients; D14, 300 mg bid): 4.4 g/L
fibrinogen level, mean (COPD patients; D14, 300 mg bid): 3.1 g/L
fibrinogen level, median (COPD patients; D14, 300 mg bid): 3.03 g/L
fibrinogen level, minimum (COPD patients; D14, 300 mg bid): 1.6 g/L
fibrinogen change from baseline, maximum (COPD patients; D14, 300 mg bid): 1.7
fibrinogen change from baseline, mean (COPD patients; D14, 300 mg bid): −0.18
fibrinogen change from baseline, median (COPD patients; D14, 300 mg bid): −0.20
fibrinogen change from baseline, minimum (COPD patients; D14, 300 mg bid): −1.7
fibrinogen level, maximum (COPD patients; D29, 300 mg bid): 4.4 g/L
fibrinogen level, mean (COPD patients; D29, 300 mg bid): 3.02 g/L
fibrinogen level, median (COPD patients; D29, 300 mg bid): 2.98 g/L
fibrinogen level, minimum (COPD patients; D29, 300 mg bid): 1.6 g/L
fibrinogen change from baseline, maximum (COPD patients; D29, 300 mg bid): 1.3
fibrinogen change from baseline, mean (COPD patients; D29, 300 mg bid): −0.24
fibrinogen change from baseline, median (COPD patients; D29, 300 mg bid): −0.17
fibrinogen change from baseline, minimum (COPD patients; D29, 300 mg bid): −1.8
mean change from baseline over time for fibrinogen (FIG. 1) (COPD patients; Day 14 and 29 during treatment period): decrease of fibrinogen levels
estimated difference (Compound A to placebo) in mean change from baseline fibrinogen (COPD patients; Day 29, 300 mg bid for 28 days, 90% CI −0.65, −0.14, p-value=0.006): -0.40 g/L
Fibrinogen mean improvement over placebo (COPD patients; Day 29, p-value=0.006): 40 mg/dL
fibrinogen level, mean (COPD patients; EOS (Day 56, 28 days after last dose), 300 mg bid): 3.24 g/L
fibrinogen level, maximum (COPD patients; EOS, 300 mg bid): 6.6 g/L
fibrinogen level, median (COPD patients; EOS, 300 mg bid): 3.16 g/L
fibrinogen level, minimum (COPD patients; EOS, 300 mg bid): 2 g/L
fibrinogen change from baseline, maximum (COPD patients; EOS, 300 mg bid): 3.0
fibrinogen change from baseline, mean (COPD patients; EOS, 300 mg bid): −0.03
fibrinogen change from baseline, median (COPD patients; EOS, 300 mg bid): −0.11
fibrinogen change from baseline, minimum (COPD patients; EOS, 300 mg bid): −1.7
fibrinogen level, maximum (COPD patients; [2]): 4.9 g/L
fibrinogen level, mean (COPD patients; [2]): 3.03 g/L
fibrinogen level, median (COPD patients; [2]): 3 g/L
fibrinogen level, minimum (COPD patients; [2]): 1.1 g/L
